What was measured:
MAO = assay: Inhibition of MAO ex vivo, p-tyramine as substrate; format: in vivo, male Sprague-Dawley rats; conditions: 18 h, 14C p-tyramine
Description: The ability of a compound of Formula I to inhibit MAO can be determined ex vivo by the following procedure:
The test compound is administered orally (p.o.) to 300-350 g male Sprague-Dawley rats (Charles River, France) and the animals are killed 18 hours after treatment. The brain, heart, liver and/or duodenum is removed and either a crude homogenate or a mitochondrial fraction, described in Example 5, Part (A), is prepared. MAO activity is determined in the homogenates using ^14 C p-tyramine, as the substrate. Table III gives the results of the testing of (Z)-2-(2',4'-dichlorophenoxy)methyl-3-fluoroallylamine according to the above described procedure. Selectivity can be determined by repeating the above-described test using either ^14 C […] (for MAO-A) or ^14 C phenethylamine (for MAO-B) as the substrate for determining the percentage inhibition.

[1] = tested on: heart monoamines and their metabolites; assay: Inhibition of MAO in vivo: heart monoamines and their metabolites (HPLC); design: species or system male Sprague-Dawley rats; NE, Table V (heart) / DOPAC, Table V (heart) / 5HT, Table V (heart) / 5HIAA, Table V (heart): unit not given beside the values; conditions: for 5HIAA, Table V (heart) / DOPAC, Table V (heart) / NE, Table V (heart) / HVA, Table V (heart) / 5HT, Table V (heart): 18 h; for 5HIAA, Table V (heart): control 7 ± 1; for DOPAC, Table V (heart): control 78 ± 22; for NE, Table V (heart): control 735 ± 100; for HVA, Table V (heart): control 38 ± 9; for 5HT, Table V (heart): control 808 ± 50
Description: The ability of a compound of Formula I to inhibit MAO can be determined in vivo using brain and heart samples obtained from the ex vivo study reported in Example 9. Monoamines and their deaminated metabolites were determined by HPLC with electrochemical detection by the method of J. Wagner et al, J. Neurochem. 38 1241-1254.
When (Z)-2-(2',4'-dichlorophenoxy)methyl-3-fluoroallylamine is tested according to the above-described procedure, the results given in Tables IV and V are obtained. In these tables the following abbreviations are used: […]

Q: For `NC/C(=C/F)COc1ccc(Cl)cc1Cl` [(z)-2-(2',4'-dichlorophenoxy)methyl-3-fluoroallylamine], which “% Inhibition, Brain (1)” value (MAO; 1 mg/kg po) is on record?
A: 41%

Q: And the “% Inhibition, Duodenum (1)” value (MAO; 1 mg/kg po)?
A: 10%

Q: What about the “% Inhibition, Heart (1)” value (MAO; 1 mg/kg po) of the same compound?
A: 27%

Q: What about the “% Inhibition, Liver (1)” value (MAO; 1 mg/kg po) of the same compound?
A: 0%

Q: And the “% Inhibition, Brain (1)” value (MAO; 2.5 mg/kg po)?
A: 23%

Q: And the “% Inhibition, Duodenum (1)” value (MAO; 2.5 mg/kg po)?
A: 26%

Q: What about the “% Inhibition, Heart (1)” value (MAO; 2.5 mg/kg po) of the same compound?
A: 0%

Q: And the “% Inhibition, Liver (1)” value (MAO; 2.5 mg/kg po)?
A: 9%

Q: And the “% Inhibition, Brain (1)” value (MAO; 5 mg/kg po)?
A: 34%

Q: And the “% Inhibition, Duodenum (1)” value (MAO; 5 mg/kg po)?
A: 55%

Q: And the “% Inhibition, Heart (1)” value (MAO; 5 mg/kg po)?
A: 0%

Q: What about the “% Inhibition, Liver (1)” value (MAO; 5 mg/kg po) of the same compound?
A: 21%

Q: And the “% Inhibition, Brain (1)” value (MAO; 10 mg/kg po)?
A: 55%

Q: And the “% Inhibition, Duodenum (1)” value (MAO; 10 mg/kg po)?
A: 57%

Q: And the “% Inhibition, Heart (1)” value (MAO; 10 mg/kg po)?
A: 0%

Q: And the “% Inhibition, Liver (1)” value (MAO; 10 mg/kg po)?
A: 25%

Q: What about the “% Inhibition, Brain (1)” value (MAO; 25 mg/kg po) of the same compound?
A: 73%

Q: What about the “% Inhibition, Duodenum (1)” value (MAO; 25 mg/kg po) of the same compound?
A: 65%

Q: What about the “% Inhibition, Heart (1)” value (MAO; 25 mg/kg po) of the same compound?
A: 32%

Q: And the “% Inhibition, Liver (1)” value (MAO; 25 mg/kg po)?
A: 55%

Q: And the “5HIAA, Table V (heart)” value ([1]; 1 mg/kg p.o.)?
A: 16 ± 4

Q: And the “DOPAC, Table V (heart)” value ([1]; 1 mg/kg p.o.)?
A: 56 ± 11

Q: What about the “NE, Table V (heart)” value ([1]; 1 mg/kg p.o.) of the same compound?
A: 741 ± 56

Q: And the “HVA, Table V (heart)” value ([1]; 1 mg/kg p.o., p <0.02)?
A: 71 ± 6

Q: What about the “5HT, Table V (heart)” value ([1]; 1 mg/kg p.o., spread ± 79) of the same compound?
A: 1017

Q: What about the “5HIAA, Table V (heart)” value ([1]; 2.5 mg/kg p.o.) of the same compound?
A: 7 ± 1

Q: What about the “HVA, Table V (heart)” value ([1]; 2.5 mg/kg p.o.) of the same compound?
A: 53 ± 8

Q: And the “DOPAC, Table V (heart)” value ([1]; 2.5 mg/kg p.o.)?
A: 46 ± 12

Q: And the “NE, Table V (heart)” value ([1]; 2.5 mg/kg p.o.)?
A: 762 ± 20

Q: And the “5HT, Table V (heart)” value ([1]; 2.5 mg/kg p.o., spread ± 108)?
A: 995

Q: What about the “5HIAA, Table V (heart)” value ([1]; 5 mg/kg p.o.) of the same compound?
A: 20 ± 6

Q: What about the “HVA, Table V (heart)” value ([1]; 5 mg/kg p.o.) of the same compound?
A: 60 ± 16

Q: What about the “DOPAC, Table V (heart)” value ([1]; 5 mg/kg p.o.) of the same compound?
A: 56 ± 7

Q: And the “NE, Table V (heart)” value ([1]; 5 mg/kg p.o.)?
A: 875 ± 53

Q: And the “5HT, Table V (heart)” value ([1]; 5 mg/kg p.o., spread ± 154)?
A: 1018

Q: And the “5HIAA, Table V (heart)” value ([1]; 10 mg/kg p.o.)?
A: 14 ± 2

Q: What about the “HVA, Table V (heart)” value ([1]; 10 mg/kg p.o.) of the same compound?
A: 55 ± 3

Q: And the “DOPAC, Table V (heart)” value ([1]; 10 mg/kg p.o.)?
A: 62 ± 5

Q: And the “NE, Table V (heart)” value ([1]; 10 mg/kg p.o.)?
A: 729 ± 58

Q: And the “5HT, Table V (heart)” value ([1]; 10 mg/kg p.o., spread ± 82)?
A: 850

Q: And the “DOPAC, Table V (heart)” value ([1]; 25 mg/kg p.o.)?
A: 87 ± 27

Q: And the “NE, Table V (heart)” value ([1]; 25 mg/kg p.o.)?
A: 765 ± 50

Q: And the “5HIAA, Table V (heart)” value ([1]; 25 mg/kg p.o., p <0.02)?
A: 26 ± 4

Q: And the “HVA, Table V (heart)” value ([1]; 25 mg/kg p.o., p <0.02)?
A: 65 ± 4

Q: What about the “5HT, Table V (heart)” value ([1]; 25 mg/kg p.o., spread ± 113) of the same compound?
A: 685

Q: And the “monoamines or their metabolites in the heart, in words” value ([1]; 1-25 mg/kg p.o.)?
A: no consistent changes

Reference: patent publication US4699928A, “Fluoroallylamine derivatives” (Merrell Dow Pharmaceuticals Inc., priority 1986, dated 1987)
